Laboratory results from patent US9624544B2, “Allelic disorders caused by mutations in TRPV4” (Northwestern University, priority 2009, dated 2017).

Assays:
[1] = system: TRPV4 (wtTRPV4, TRPV4R269H, TRPV4R316C); test: Calcium imaging, internal Fura-2 fluorescence ratio (340/380), in transiently transfected HEK293 cells; type: cell-based, human; conditions: for effect on [Ca2+]i (internal fluorescence ratio): WT-TRPV4, R269H and R316C transfected HEK293 cells
Protocol: The TRPV4 channel responds to a variety of stimuli (Nilius et al. Physiol Rev 87, 165-217 (2007); herein incorporated by reference in its entirety). To test the potential effects of the mutations on calcium channel activity, the calcium channel activity of transiently transfected HEK293 cells was analyzed using internal Fura-2 fluorescence ratio (340/380) as an indicator of the intracellular Ca2+ levels, which depend on Ca2+ influx. Calcium levels of the transfected cells were examined in response to various stimuli, including TRPV4-specific agonist 4α-phorbol 12, 13-didecanoate (4αPDD) (SEE FIG. 4), osmotic cell swelling (SEE FIG. 5), moderate heat (37° C.) (SEE FIG. 9) and endogenous agonist arachidonic acid (SEE FIG. 10). A consistent pattern of channel response to different stimuli was observed. […] The increased calcium channel activity was inhibited by TRPV antagonist ruthenium red.
Human embryonic kidney cells (HEK293) were grown on collagen-coated glass coverslips in Dulbecco's modified Eagle's medium containing 10% (v/v) human serum, 2 mM L-glutamine, 2 U/ml penicillin, and 2 […] at 37° C. in a humidity-controlled incubator with 5% CO2. The cells were transiently transfected with expression vectors, wild-type TRPV4, TRPV4^R316C or TRPV4^R269H using Lipofectamine 2000 (Invitrogen).
Intracellular free calcium concentration was measured using digital video microfluorimetry. Twenty-four hours after transfection, cells were rinsed briefly with HEPES buffer (120 mM NaCl, 5.4 mM KCl, 1.6 mM MgCl2, 1.8 mM CaCl2, 11 mM glucose, and 25 mM HEPES, pH 7.2), and loaded with 4 μM fura-2 AM (Molecular Probes) in HEPES buffer for 30 min at room temperature. […] The coverslips were then mounted on the stage of a Nikon Diaphot inverted epifluorescence microscope equipped for digital fluorescence microscopy. After excitation at 340 nm (Ca^2+-bound) and 380 nm (Ca^2+-free) fluorescence was digitally monitored at 520 nm. […] Values for Rmin and Rmax were determined by applying Ca^2+-free solution and high Ca^2+ containing solution in the presence of 5 μM ionomycin, respectively. […]

[2] = system: TRPV4 (wtTRPV4, TRPV4-R269H); test: Whole cell voltage clamp recordings of TRPV4 currents from transfected HEK293 cells; type: cell-based, human; conditions: 20 μM ruthenium red in the bath; voltage ramp -100 to 100 mV; cells expressing wtTRPV4 or TRPV4-R269H
Protocol: The effect of the CMT2C-linked mutation (TRPV4R269H) on the electrophysiological properties of TRPV4 was examined. Whole-cell patch-clamp recordings were obtained from transiently transfected HEK293 cells.
Whole cell voltage clamp recordings were performed to HEK293 cells transiently transfected with wild-type or R269H TRPV4 cDNA. […] Similar GFP-fluorescent cells were selected for experiments. […] The series resistance was 4 to 14 MSΩ and was compensated between 65 and 75%. The extracellular solution consisted of (in mM): NaCl 100, KCl 6, MgCl2 2, CaCl2 1.5, Glucose 10, HEPES 10, pH 7.38 adjusted with NaOH, ˜315 mOsm adjusted with sucrose. Whole cell currents were recorded using an Axopatch 200B amplifier (Molecular Devices). Cells were held at −30 mV and currents were elicited by slow voltage ramps (from −100 mV to +100 mV, 0.6 sec duration), filtered at 5 KHz and sampled at 10 KHz. Drugs were bath-applied at a rate of ˜4 ml/min. The current density was determined by normalizing the current to the cell capacitance measured in voltage clamp using a −5 mV square pulse from a holding potential of −30 mV. Ruthenium red was prepared in a 20 mM stock solution (in water) and stored at 2-4° C. Working solutions were prepared freshly daily and were bath applied. After drug application the dish was discarded even if complete wash-out of the drug was obtained.

Q: For `CCCCCCCCCC(=O)O[C@@H]1[C@@H](C)[C@@]2(O)[C@@H](C=C(CO)C[C@@]3(O)C(=O)C(C)=C[C@@H]23)[C@@H]2C(C)(C)[C@]12OC(=O)CCCCCCCCC` [4αPDD, 4α-phorbol 12, 13-didecanoate], which “effect on [Ca2+]i (internal fluorescence ratio)” value ([1]; 4αPDD 2 μM) is on record?
A: Its value is “induced an increase in [Ca2+]i”.

Q: Which “effect on [Ca2+]i (internal fluorescence ratio)” value ([1]; arachidonic acid 10 μM) does the source give for `CCCCC/C=C\C/C=C\C/C=C\C/C=C\CCCC(=O)O` [AA, arachidonic acid] here?
A: The value was “induced an increase in [Ca^2+]i”.

Q: `N.N.N.N.N.N.N.N.N.N.N.N.N.N.[Cl-].[Cl-].[Cl-].[Cl-].[Cl-].[Cl-].[O-2].[O-2].[Ru+3].[Ru+3].[Ru+4]` [ruthenium red] was tested. Which “effect on basal whole-cell currents” value [2] did it give?
A: The value was “dramatically reduced the currents”.

Q: And the “effect on the increased calcium channel activity” value ([1]; ruthenium red 20 μM used to block the stimuli, transfected HEK293 cells)?
A: The value was “inhibited”.
